Data as given in patent US12122780B2, “Pyrimidinyl group-containing tricyclic compound serving as c-Met inhibitor” (JIANGSU AOSAIKANG PHARMACEUTICAL CO., LTD., priority 2019, dated 2024).
Where a name gives a salt, the structure may show the parent alone.

Legend:
[1] = target: c-Met enzyme (Homo sapiens (Human), UniProt P08581); experiment: c-Met enzyme activity inhibition (Promega c-Met Kinase Enzyme System, ADP-Glo); assay type: biochemical; conditions: 10 μM ATP, 60 min, 30° C.
Description: To detect the inhibitory effect of the compounds on c-Met enzyme activity.
The c-Met Kinase Enzyme System was purchased from Promega. Envision multi-label analyzer (PerkinElmer).
The kinase buffer in the kit was used to dilute the enzyme, substrate, ATP and inhibitor.
The compound to be tested was diluted 5-fold to the eighth concentration with a discharge gun, i.e., from 50 μM to […], with a final DMSO concentration of 5%, and double duplicate wells experiment was set. 1 μL of each concentration gradient of the inhibitor, 2 μL of c-Met enzyme (4 ng), 2 μL of a mixture of the substrate and ATP (10 μM ATP, 0.2 μg/μL poly E4Y1) were added to the microplate, and the final concentration gradient of the compound of 10 μM was diluted to 0.13 nM. The reaction system was placed at 30° C. and the reaction was carried out for 60 minutes. When the reaction was completed, 5 μL of ADP-Glo reagent was added to each well and the reaction was carried out at 30° C. for another 40 minutes, when the reaction was completed, 10 μL of kinase detection reagent was added to each well, then the reaction was carried out at 30° C. for still another 30 minutes, chemiluminescence was read by the PerkinElmer Envision multi-label analyzer with an integration time of 0.5 seconds.
Using the equation (Sample-Min)/(Max-Min)*100% to convert the original data to the inhibition rate, the IC50 value can be obtained by curve fitting with four parameters (obtained by log(inhibitor) vs. response in GraphPad Prism—Variable slope mode).

[2] = tested on: EBC-1 cells; experiment: EBC-1 cell proliferation experiment (CellTiter-Glo); assay type: cell-based, human; conditions: Homo sapiens, EBC-1, 72 h, 3 days
Description: MEM medium, fetal bovine serum, penicillin/streptomycin antibiotics were purchased from Wisent. EBC-1 cell line was purchased from Nanjing COBIO Bioscience Co., LTD. Envision multi-label analyzer (PerkinElmer).
EBC-1 cells were seeded in a white 96-well plate, […] cell suspension per well, which contained 3000 EBC-1 cells. The cell plate was placed in a carbon dioxide incubator for overnight culture.
The compound to be tested was diluted 5-fold to the eighth concentration with a discharge gun, i.e., from 2 mM to […], and double duplicate wells experiment was set. 78 μL of the medium was added to the middle plate, then 2 μL per well of gradient diluted compound was transferred to the corresponding position on the middle plate, then mixed well and 20 μL per well was transferred to the cell plate. The cell plate was cultured in a carbon dioxide incubator for 3 days. Another cell plate was prepared and the signal values were read on the day of dosing as […] to be used in the data analysis. 25 μL of Promega CellTiter-Glo was added to each well of this cell plate, and incubated at room temperature for 10 minutes to stabilize the luminescence signal. Readings were taken using a PerkinElmer Envision multi-label analyzer.
25 μL of Promega CellTiter-Glo reagent was added to each well of this cell plate, and incubated at room temperature for 10 minutes to stabilize the luminescence signal. Readings were taken using a PerkinElmer Envision multi-label analyzer.
Using the equation (Sample-Min)/(Max-Min)*100% to convert the original data to the inhibition rate, the IC50 value can be obtained by curve fitting with four parameters (obtained by “log(inhibitor) vs. response in GraphPad Prism—Variable slope mode).

[3] = tested on: Hs746T cells; experiment: Hs746T cell proliferation experiment (CellTiter-Glo); assay type: cell-based; conditions: Homo sapiens, 96 h, 4 days
Description: DMEM medium was purchased from Gibco, and fetal bovine serum was purchased from Hyclone. Hs746T cell line was purchased from ATCC. Envision multi-label analyzer (PerkinElmer).
Hs746T cells were seeded in a 384-well plate, 50 μL of cell suspension per well, which contained 1500 Hs746T cells. The cell plate was placed in a carbon dioxide incubator for overnight culture.
The compounds to be tested were 3-fold diluted into 9 concentrations with Tecan, double-duplicate well experiment was set, and the final compound concentrations added to the 384-well cell plate were 1000 nM to 0.15 nM. The cell plate was cultured in a carbon dioxide incubator for 4 days.
After 4 days, 25 μL of Promega CellTiter-Glo reagent was added to each well of this cell plate, and incubated at room temperature for 10 minutes to stabilize the luminescence signal. Readings were taken using a PerkinElmer Envision multi-label analyzer.
The action curves of the compounds were automatically fitted using Xlfit software and the values of IC50 were calculated, High control was the values of DMSO-treated wells and Low control was the values of cell-free medium wells.

[4] = tested on: human lung cancer EBC-1 xenograft tumor; experiment: In vivo drug efficacy, human lung cancer EBC-1 xenograft tumor in nude mice; design: species or system BALB/c nude mice; conditions: for Tumor volume: n = 6
Description: BALB/c nude mice, female, 6-8 weeks old, weighing about 18-20 grams, animals were raised in SPF-class animal rooms in IVC (independent air supply system, constant temperature and humidity) cages (3 per cage). All cages, bedding and water were disinfected before use. All animals had free access to standard certified commercial laboratory diets. A total of 36 mice purchased from Shanghai Lingchang Biotechnology Co., Ltd. were used for research. Each animal was inoculated with 0.1 mL (5×10^6 cells) of EBC-1 cells on the right back, when the average tumor volume reached 243 mm^3, the animals were randomly grouped and the administration was started. The test compound was orally administered daily, the dose of hydrochloride of compound 24 was 10 mg/kg, the two doses of hydrochloride of compound 25 were 10 mg/kg and 20 mg/kg, respectively, and the dose of hydrochloride of compound 29 was 10 mg/kg. The tumor diameter was measured with vernier calipers twice a week. The calculation formula of tumor volume was: V=0.5a×b^2, a and b represented the long diameter and short diameter of the tumor, respectively. The anti-tumor efficacy of the compound was evaluated by TGI (%) or the relative tumor proliferation rate T/C (%). Relative tumor proliferation rate T/C (%)=TRTV/CRTV×100% (TRTV: average RTV in the treatment group; CRTV: average RTV in the negative control group). The relative tumor volume (RTV) was calculated according to the results of tumor measurement, the calculation formula was RTV=Vt/V0, wherein V0 was the tumor volume measured at the time of the grouping administration (i.e. D0), Vt was the tumor volume at a certain measurement, and TRTV and CRTV were taken on the same day. TGI (%) reflected the tumor growth inhibition rate. TGI (%)=[(1−(average tumor volume of a certain treatment group after administration-average tumor volume of the treatment group at the beginning of administration))/(average tumor volume of the solvent control group after the administration-average tumor volume of the solvent control group at the beginning of the administration)]×100%. Statistical analysis was performed based on RTV data at the end of the experiment, and SPSS software was used for analysis.

Chain of c-Met enzyme (P08581 956-1390): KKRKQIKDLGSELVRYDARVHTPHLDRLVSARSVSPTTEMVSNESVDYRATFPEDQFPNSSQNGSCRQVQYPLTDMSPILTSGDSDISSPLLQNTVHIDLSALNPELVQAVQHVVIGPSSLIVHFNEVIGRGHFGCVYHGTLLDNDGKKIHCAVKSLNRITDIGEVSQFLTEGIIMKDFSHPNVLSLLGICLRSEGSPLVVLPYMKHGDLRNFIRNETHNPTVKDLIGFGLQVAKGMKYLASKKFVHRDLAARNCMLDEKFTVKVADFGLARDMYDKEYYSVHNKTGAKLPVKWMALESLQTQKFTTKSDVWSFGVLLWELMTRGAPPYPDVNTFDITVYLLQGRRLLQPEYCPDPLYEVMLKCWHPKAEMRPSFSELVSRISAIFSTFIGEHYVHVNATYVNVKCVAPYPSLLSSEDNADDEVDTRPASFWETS

Row | IC50 [1] [nM] | SMILES | IC50 [2] [nM] | IC50 [3] [nM] | also measured
1 | 7.48 | N#Cc1ccc2nc3n(Cc4cccc(-c5ncc(OCC6CCN(CCO)CC6)cn5)c4)c(=O)ccn3c2c1 [Hydrochloride of compound 30] | 7.09 | 2 | 
2 | 6.63 | COC1(COc2cnc(-c3cccc(Cn4c(=O)ccn5c6cc(C#N)ccc6nc45)c3)nc2)CCN(CCO)CC1 [Hydrochloride of compound 41] | 5.08 | 2.3 | 
3 | 2.82 | CN1CCC(O)(COc2cnc(-c3cccc(Cn4c(=O)ccn5c6cc(C#N)ccc6nc45)c3)nc2)CC1 [Hydrochloride of compound 34] | 4.91 | 2.6 | 
4 | 4.26 | CC(C)N1CCC(O)(COc2cnc(-c3cccc(Cn4c(=O)ccn5c6cc(C#N)ccc6nc45)c3)nc2)CC1 [Hydrochloride of compound 37] | 4.91 | 2.5 | 
5 | 7.65 | COC1(COc2cnc(-c3cccc(Cn4c(=O)ccn5c6cc(C#N)ccc6nc45)c3)nc2)CCN(C(C)C)CC1 [Hydrochloride of compound 38] | 8.51 | 3.2 | 
6 | 7.38 | COC1(COc2cnc(-c3cccc(Cn4c(=O)ccn5c6cc(C#N)ccc6nc45)c3)nc2)CCN(C)CC1 [Hydrochloride of compound 36] | 6.13 | 2.7 | 
7 | 2.03 | CCN1CCC(COc2cnc(-c3cccc(Cn4c(=O)ccn5c6cc(C#N)ccc6nc45)c3)nc2)CC1 [Hydrochloride of compound 24] | 4.26 |  | Tumor volume ([4]; 10 mg/kg oral daily (stopped after 15 days), day 18, mean ± standard error): 123 ± 31 mm^3; Tumor volume ([4]; 10 mg/kg oral daily (stopped after 15 days), day 21, mean ± standard error): 164 ± 45 mm^3; Tumor volume ([4]; 10 mg/kg oral daily (stopped after 15 days), day 25, mean ± standard error): 257 ± 72 mm^3; Tumor volume ([4]; 10 mg/kg oral daily (stopped after 15 days), day 25, mean ± standard error, listed as hydrochloride of compound 24): 257 mm^3; Tumor volume ([4]; 10 mg/kg oral daily (stopped after 15 days), day 27, mean ± standard error): 366 ± 92 mm^3; TGI (tumor growth inhibition rate) ([4]; 10 mg/kg oral daily, 25th day): 99.3%; TRTV/CRTV (relative tumor proliferation rate T/C) ([4]; 10 mg/kg oral daily, 25th day): 13.7%; Tumor volume ([4]; 10 mg/kg oral daily, day 0, mean ± standard error): 244 ± 23 mm^3; Tumor volume ([4]; 10 mg/kg oral daily, day 4, mean ± standard error): 270 ± 22 mm^3; Tumor volume ([4]; 10 mg/kg oral daily, day 7, mean ± standard error): 224 ± 16 mm^3; Tumor volume ([4]; 10 mg/kg oral daily, day 11, mean ± standard error): 142 ± 24 mm^3; Tumor volume ([4]; 10 mg/kg oral daily, day 14, mean ± standard error): 120 ± 25 mm^3
